Data published in patent US7556807B2, “Signal peptides, nucleic acid molecules and methods for treatment of caries” (priority 2001, dated 2009).
Entries after “also recorded” stand apart in the source; their conditions may differ. No end group written: not given here.

What was measured:
[1] = tested on: S. mutans wild-type UA159; experiment: S. mutans acid resistance assay (growth in THYE at pH 7.5 and pH 5.5); type: cell-based, Streptococcus mutans; conditions: 5 μg/ml of peptide analog; for Growth (pH 7.5): THYE pH 7.5; for Acid resistance (pH 5.5): growth in THYE pH 5.5
Method: The effect of peptides on acid tolerance was evaluated by assessment of growth in THYE at pH 7.5 and pH 5.5. Overnight S. mutans wild-type UA159 cells were diluted (1:20) with prewarmed THYE broth and incubated at 37° C. in air with 5% CO2 until an OD600 of approximately 0.4 was reached. A 20-fold dilution was made into 400 μl of either THYE pH 7.5 or THYE pH 5.5 broth containing different concentrations (0, 0.1, 0.5, 2, and 5 μg per ml) of peptide analogs and added in the individual wells of a 100-well Bioscreen C plate in triplicate. Wells without cells were used as blank controls. A Bioscreen microbiology reader (Labsystems, Helsinki, Finland) was employed to continuously grow cells and measure cell growth for 16 h at 37° C. Measurements were taken every 20 min with shaking to prevent cell aggregation.

[2] = tested on: S. mutans wild-type UA159; experiment: S. mutans biofilms formed on polystyrene microtiter plates (b), SDM-glucose, safranin (first study); type: cell-based, Streptococcus mutans; conditions: 5 μg/ml of peptide analog; ↓ = reduced biomass compared to biofilm grown in presence of wild-type CSP
Method: Biofilms were developed in 96-well polystyrene microtiter plates. […] Wells without cells were used as blank controls. […] After the incubation, the planktonic cells were carefully removed and the plates were air dried overnight. The plates were then stained with 0.01% (wt/vol) safranin for 10 min, rinsed with sterile distilled water and air dried. Biofilms were quantified by measuring the absorbance of stained biofilms at 490 nm with a microplate reader (model 3550; Bio-Rad Laboratories, Richmond, Calif.).

[3] = tested on: S. mutans wild-type UA159; experiment: S. mutans competence assay (genetic transformation with plasmid pDL289); type: cell-based, Streptococcus mutans; conditions: 5 μg/ml of peptide analog; for Transformation efficiency (vs no CSP): compared with natural transformation without exogenous CSP, 'no effect' = no significant difference by comparison with CSP; for Transformation efficiency (vs 5 μg CSP): compared with wild-type S. mutans CSP (5 μg CSP)
Method: To determine if the peptide analogs had any impact on the development of genetic competence, S. mutans UA159 wild-type cells were assayed for genetic transformation. Overnight cultures of S. mutans UA159 were diluted (1:20) with prewarmed THYE broth and incubated at 37° C. in air with 5% CO2 until an optical density (OD) of approximately 0.1 at 600 nm was reached. The culture was then divided into six aliquots containing 1 μg/ml of plasmid pDL289 and different concentrations (0, 0.1, 0.5, 2, and 5 μg per ml) of peptide analogs. The cultures were incubated at 37° C. in air with 5% CO2 for 2.5 h, gently sonicated for 10 s to disperse the streptococcal chains, and spread on THYE plates containing kanamycin. Plates were incubated at 37° C. in air with 5% CO2 for 48 h. Total recipient cells were counted by spreading serial dilutions on THYE agar plates without antibiotic. Transformation efficiency was expressed as the percentage of kanamycin resistant transformants over the total number of recipient cells.

[4] = tested on: S. sobrinus; experiment: Growth and biofilm formation on polystyrene microtiter plates, crystal violet; type: cell-based, Streptococcus sobrinus; conditions: for Biofilm formation: additional studies
Method: (§1) They were grown in Todd-Hewitt broth containing 0.3% yeast extract (THYE) at pH 5.5 or 7.5. […] In liquid media, cultures were incubated in closed screw-cap tubes without agitation at 37° C. in an anaerobic chamber (5% CO2).
(§2) Wells without cells were used as blank controls.

[5] = tested on: S. sanguis; experiment: as above; type: cell-based, Streptococcus sanguis; conditions: for Biofilm formation: additional studies
Method: as §1, §2

[6] = tested on: S. mitis; experiment: as above; type: cell-based, Streptococcus mitis; conditions: for Biofilm formation: additional studies
Method: as §1, §2

[7] = tested on: S. gordonii; experiment: as above; type: cell-based, Streptococcus gordonii; conditions: for Biofilm formation: additional studies
Method: as §1, §2

[8] = tested on: S. pneumoniae; experiment: as above; type: cell-based, Streptococcus pneumoniae; conditions: for Biofilm formation: additional studies
Method: as §1, §2

[9] = tested on: S. oralis; experiment: as above; type: cell-based, Streptococcus oralis; conditions: for Biofilm formation: additional studies
Method: as §1, §2

[10] = tested on: mixed culture of the above Streptococcus spp.; experiment: Mixed culture biofilm formation; type: cell-based; conditions: data not shown
Text: as §2

Row | Substance | Growth (pH 7.5) [1] | Acid resistance (pH 5.5) [1] | Bioflim formation (SDM-glucose) [2] | other results
1 | A2: S. mutans CSP analog, 5th residue removed from C′ (SGSLSTFFRLFNASFTQALGK; E2 peptide analog) | no effect | significant decrease in cell growth | no effect | –
2 | B1: S. mutans CSP analog, 2nd residue removed from N′ (SGSLSTFFRLFNRSFTQALK; F1 peptide analog) | ↓growth | growth | no effect | Transformation efficiency (vs no CSP) [3]: no effect; Transformation efficiency (vs 5 μg CSP) [3]: no significant effect
3 | C1: S. mutans CSP analog, 3rd residue removed from N′ (SGSLSTFFRLFNRSFTQAGK; G1 peptide analog) | ↓growth | growth | no effect | Transformation efficiency (vs no CSP) [3]: no effect; Transformation efficiency (vs 5 μg CSP) [3]: no significant effect
4 | D1: S. mutans CSP analog, 4th residue removed from N′ (SGSLSTFFRLFNRSFTQLGK; H1 peptide analog) | ↓growth | growth | no effect | –
5 | E1: S. mutans CSP analog, 5th residue removed from N′ (SGSLSTFFRLFNRSFTALGK; A2 peptide analog) | ↓growth | growth | no effect | –
6 | F1: S. mutans CSP analog, 2nd residue removed from C′ (SGSLSTFFVLFNRSFTQALGK; B2 peptide analog) | diminution of cell growth | diminution of cell growth | – | Biofilm formation [4]: significantly reduce biofilm formation; Biofilm formation [5]: significantly reduce biofilm formation; Biofilm formation [6]: significantly reduce biofilm formation; Biofilm formation [7]: significantly reduce biofilm formation; Biofilm formation [8]: significantly reduce biofilm formation; Biofilm formation [9]: significantly reduce biofilm formation
7 | G1: S. mutans CSP analog, 3rd residue removed from C′ (SGSLSTFFALFNRSFTQALGK; C2 peptide analog) | ↓growth | growth | – | –
8 | IH-1: S. mutans CSP analog, 1st residue removed from N′ (SGSSTFFRLFNRSFTQALGK; D1 peptide analog) | ↓growth | growth | no effect | Transformation efficiency (vs no CSP) [3]: no effect^a; Transformation efficiency (vs 5 μg CSP) [3]: no significant effect
9 | IH-2: S. mutans CSP analog, 1st residue removed from C′ (SGSLTFFRLFNRSFTQALGK; E1 peptide analog) | ↓growth | growth | no effect | Transformation efficiency (vs no CSP) [3]: no effect; Transformation efficiency (vs 5 μg CSP) [3]: no significant effect
10 | SGSLSTFFALFNRSFTQALGK (SGSLSTFFRLFNRSFTQALGA; G2 peptide analog) [C2, S. mutans CSP analog, substitution of 1st R residue with A] | no effect | significant decrease in cell growth | no effect | Biofilm formation [4]: significantly reduce biofilm formation; Biofilm formation [5]: significantly reduce biofilm formation; Biofilm formation [6]: significantly reduce biofilm formation; Biofilm formation [7]: significantly reduce biofilm formation; Biofilm formation [8]: significantly reduce biofilm formation; Biofilm formation [9]: significantly reduce biofilm formation
11 | SGSLSTFFRLFNASFTQALGK [E2] | no effect; also recorded: without affecting the cell growth | significant decrease in cell growth; also recorded: inhibited cell growth | – | Growth ([4]; 5 μg/ml): inhibitory effects; Biofilm formation [4]: significantly reduce biofilm formation; Growth ([5]; 5 μg/ml): inhibitory effects; Biofilm formation [5]: significantly reduce biofilm formation; Growth ([6]; 5 μg/ml): inhibitory effects; Biofilm formation [6]: significantly reduce biofilm formation; Growth ([7]; 5 μg/ml): inhibitory effects; Biofilm formation [7]: significantly reduce biofilm formation; Mixed culture biofilm formation [10]: significant inhibitory effect; Growth ([8]; 5 μg/ml): inhibitory effects; Biofilm formation [8]: significantly reduce biofilm formation; Growth ([9]; 5 μg/ml): inhibitory effects; Biofilm formation [9]: significantly reduce biofilm formation
12 | SGSLSTFFRLFNRSFTQALGA [G2, S. mutans CSP analog, substitution of K residue with A] | diminution of cell growth | diminution of cell growth | – | –
13 | SGSLSTFFRLFNRSFTQALGV [F2, S. mutans CSP analog, substitution of K residue with V] | diminution of cell growth | diminution of cell growth | – | –
14 | SGSLSTFFRLFNVSFTQALGK [D2, S. mutans CSP analog, substitution of 2nd R residue with V] | no effect | significant decrease in cell growth | no effect | –
15 | SGSLSTFFVLFNRSFTQALGK (SGSLSTFFRLFNRSFTQALGV; F2 peptide analog) [B2, S. mutans CSP analog, substitution of 1st R residue with V] | no effect | significant decrease in cell growth | no effect | –
16 | SGTLSTFFRLFNRSFTQALGK [B3] | no effect | significant decrease in cell growth | – | Biofilm formation [4]: significantly reduce biofilm formation; Biofilm formation [5]: significantly reduce biofilm formation; Biofilm formation [6]: significantly reduce biofilm formation; Biofilm formation [7]: significantly reduce biofilm formation; Biofilm formation [8]: significantly reduce biofilm formation; Biofilm formation [9]: significantly reduce biofilm formation
